How the values were obtained:
Type in all cases: in vivo
Spodoptera litura = experiment: Insecticidal test on Spodoptera litura (cabbage leaves soaked); conditions: 144 h, 500 ppm solution, 3rd-instar larvae, 6 days after, 25° C.
Experimental: (§1) Leaves of cabbage were soaked in the solutions for about 10 seconds. After the soaking, the leaves were dried in air and placed in dishes. In each dish, five 3rd-instar larvae of Spodoptera litura were released, and the dishes were covered with lids and placed in an incubator at 25° C. 6 Days after, dead insects in the dishes were counted, and the mortality was calculated by using the same equation as in Test Example 1. The test was carried out in duplicate.

Plutella xylostella = experiment: Insecticidal test on Plutella xylostella (cabbage leaves soaked); conditions: 144 h, 500 ppm solution, 3rd-instar larvae, 6 days after, 25° C.
Experimental: as §1, with “Plutella xylostella” for “Spodoptera litura”

Nilaparvata lugens [1] = experiment: Systemic insecticidal test on Nilaparvata lugens (rice seedling root dip); conditions: 20 ppm solution, rice seedling roots dipped 7 days, 3rd-instar larvae, 6 days after release, 25° C.
Experimental: 7 Days after, the rice seedlings were picked and put in test tubes, and in each tube, five 3rd-instar larvae of Nilaparvata lugens were released, and the tubes were capped with sponge and placed in an incubator at 25° C. 6 Days after the release of the insects, dead insects were counted, and the mortality (%) (the number of dead insects÷the number of released insects×100) was calculated. The test was carried out in duplicate.

Myzus persicae = experiment: Insecticidal test on Myzus persicae (cabbage leaf spray); conditions: 144 h, 500 ppm solution sprayed (2.5 mg/cm^2), apterous adults on cabbage leaves, 6 days after, 25° C.
Experimental: Wet absorbent cotton was laid on glass dishes having an inner diameter of 3 cm, and covered with leaves of cabbage cut into circles of the same diameter, and 4 apterous adults of Myzus persicae were released. […] The solutions were sprayed from a rotary spray tower (2.5 mg/cm^2), and the dishes were covered with lids and placed in an incubator at 25° C. 6 Days after, dead insects were counted, and the mortality was calculated by using the same equation as in Test Example 1. The test was carried out in duplicate.

Nilaparvata lugens [2] = experiment: Insecticidal test on Nilaparvata lugens (rice sheaths soaked); conditions: 144 h, 500 ppm solution, 3rd-instar larvae, 6 days after, 25° C.
Experimental: Rice sheaths were soaked in the solutions for about 10 seconds. After the soaking, the rice sheaths were dried in air and put in test tubes. In each tube, five 3rd-instar larvae of Nilaparvata lugens were released, and the tubes were capped with sponge and placed in an incubator at 25° C. 6 Days after, dead insects in the test tubes were counted, and the mortality (%) (the number of dead insects÷the number of released insects×100) was calculated. The test was carried out in duplicate.

Ctenocephalides felis = experiment: Test on the effect on Ctenocephalides felis (thin film in glass container); conditions: 96 h, application dose 10 μg/cm^2, adults, 4 days after release, 25° C.
Experimental: 350 μl of the solutions were applied to the bottoms and the side walls of glass containers with an inner wall surface area of 35 cm^2, and acetone was volatilized to prepare thin films of the compounds on the inner walls of the glass containers. Since the inner wall surface area of each glass container was 35 cm^2, the application dose was 10 μg/cm^2.
To each glass container, five adults (male and female) of Ctenocephalides felis were released, and the containers were covered with lids and placed in an incubator at 25° C. 4 Days after the release of the fleas, dead fleas were counted, and the mortality was calculated by using the same equation as in Test Example 1.

Compound	mortality at 500 ppm (Spodoptera litura) [%]	mortality at 500 ppm (Plutella xylostella) [%]	mortality at 20 ppm (Nilaparvata lugens [1]) [%]	mortality at 500 ppm (Myzus persicae) [%]	mortality at 500 ppm (Nilaparvata lugens [2]) [%]	mortality at 10 µg/cm2 (Ctenocephalides felis) [%]
CCSc1c(-c2nc3cc(C(F)(F)F)ncc3n2C)nc2cc(C(F)(F)F)ccn12 [1-8-005b, 2-[3-(ethylthio)-7-(trifluoromethyl)imidazo[1,2-a]pyridin-2-yl]-3-methyl-6-(trifluoromethyl)-3H-imidazo[4,5-c]pyridine]	≥ 90					
CCSc1c(-c2nc3cc(C(F)(F)F)nc(C)c3n2C)nc2ccc(C(F)(F)F)cn12 [1-8-003b, 2-[3-(ethylthio)-6-(trifluoromethyl)imidazo[1,2-a]pyridin-2-yl]-3,4-dimethyl-6-(trifluoromethyl)-3H-imidazo[4,5-c]pyridine]	≥ 90	≥ 90				
CCS(=O)(=O)c1c(-c2nc3cc([S+]([O-])C(F)(F)F)ccc3o2)nc2ccc(C(F)(F)F)cn12 (stereo not shown) [1-2-002a, 2-[3-(ethylsulfonyl)-6-(trifluoromethyl)imidazo[1,2-a]pyridin-2-yl]-5-[(trifluoromethyl)sulfinyl]benz[d]oxazole]	≥ 90	≥ 90	≥ 90	≥ 90	≥ 90	
CCSc1c(-c2nc3cc(C(F)(F)F)cnc3n2C)nc2sc(C(F)(F)F)cn12 [2-1-001b, 5-(ethylthio)-6-[3-methyl-6-(trifluoromethyl)-3H-imidazo[4,5-b]pyridin-2-yl]-2-(trifluoromethyl)imidazo[2,1-b]thiazole]	≥ 90	≥ 90				
CCS(=O)(=O)c1c(-c2cn3ccc(C(F)(F)F)cc3n2)nc2ccc(C(F)(F)F)cn12 [1-5-002a, 3-(ethylsulfonyl)-6,7′-bis(trifluoromethyl)-2,2′-biimidazo[1,2-a]pyridine]	≥ 90	≥ 90		≥ 90	≥ 90	≥ 50
CCSc1c(-c2nc3cc(C(F)(F)F)cnc3n2C)nc2c(C(F)(F)F)cc(I)cn12 [1-1-066b, 2-[3-(ethylthio)-6-iodo-8-(trifluoromethyl)imidazo[1,2-a]pyridin-2-yl]-3-methyl-6-(trifluoromethyl)-3H-imidazo[4,5-b]pyridine]						≥ 50
CCSc1c(-c2nc3cnc(C(F)(F)F)cc3n2C)nc2cc(Cl)ccn12 [1-9-003b, 2-[7-chloro-3-(ethylthio)imidazo[1,2-a]pyridin-2-yl]-1-methyl-6-(trifluoromethyl)-1H-imidazo[4,5-c]pyridine]		≥ 90				≥ 50
CCSc1c(-n2cc3ncc(C(F)(F)F)cc3n2)nc2cc(C(F)(F)F)ccn12 [1-10-002b, 2-[3-(ethylthio)-7-(trifluoromethyl)imidazo[1,2-a]pyridin-2-yl]-6-(trifluoromethyl)-2H-pyrazolo[4,3-b]pyridine]	≥ 90	≥ 90		≥ 90		≥ 50
CCS(=O)(=O)c1c(-c2cn3cc(C(F)(F)F)sc3n2)nc2ccc(C(F)(F)F)cn12 [1-12-001a, 6-[3-(ethylsulfonyl)-6-(trifluoromethyl)imidazo[1,2-a]pyridin-2-yl]-2-(trifluoromethyl)imidazo[2,1-b]thiazole]	≥ 90	≥ 90		≥ 90		≥ 50
CCS(=O)(=O)c1c(-c2nc3cc(C(F)(F)F)cnc3s2)nc2cc(C(F)(F)F)ccn12 [1-13-001a, 2-[3-(ethylsulfonyl)-7-(trifluoromethyl)imidazo[1,2-a]pyridin-2-yl]-6-(trifluoromethyl)thiazolo[5,4-b]pyridine]	≥ 90	≥ 90				
CCS(=O)(=O)c1c(-c2cn3cc(C(F)(F)F)ncc3n2)nc2ccc(C(F)(F)F)cn12 [1-6-002a, 2-[3-(ethylsulfonyl)-6-(trifluoromethyl)imidazo[1,2-a]pyridin-2-yl]-6-(trifluoromethyl)imidazo[1,2-a]pyrazine]	≥ 90	≥ 90		≥ 90		
CCSc1c(-c2nc3cc(C(F)(F)F)cnc3n2C)nc2cc(C(F)(F)F)c(Br)cn12 [1-1-023b, 2-[6-bromo-3-(ethylthio)-7-(trifluoromethyl)imidazo[1,2-a]pyridin-2-yl]-3-methyl-6-(trifluoromethyl)-3H-imidazo[4,5-b]pyridine]	≥ 90	≥ 90				≥ 50
CCS(=O)(=O)c1c(-c2nc3cc(C(F)(F)F)cnc3n2C)nc2cc(C(F)(F)F)c(Br)cn12 [1-1-023a, 2-[6-bromo-3-(ethylsulfonyl)-7-(trifluoromethyl)imidazo[1,2-a]pyridin-2-yl]-3-methyl-6-(trifluoromethyl)-3H-imidazo[4,5-b]pyridine]	≥ 90	≥ 90		≥ 90	≥ 90	≥ 50
CCSc1c(-n2cc3cnc(C(F)(F)F)cc3n2)nc2cc(C(F)(F)F)ccn12 [1-11-001b, 2-[3-(ethylthio)-7-(trifluoromethyl)imidazo[1,2-a]pyridin-2-yl]-6-(trifluoromethyl)-2H-pyrazolo[4,3-c]pyridine]	≥ 90	≥ 90		≥ 90	≥ 90	≥ 50
CCS(=O)(=O)c1c(-c2cn3cnc(C(F)(F)C(F)(F)F)cc3n2)nc2ccc(C(F)(F)F)cn12 [1-3-008a, 2-[3-(ethylsulfonyl)-6-(trifluoromethyl)imidazo[1,2-a]pyridin-2-yl]-7-(perfluoroethyl)imidazo[1,2-c]pyrimidine]	≥ 90	≥ 90				≥ 50
CCS(=O)(=O)c1c(-c2nc3cc(C(F)(F)C(F)(F)F)ncn3c2Br)nc2ccc(C(F)(F)F)cn12 [1-3-010a, 3-bromo-2-[3-(ethylsulfonyl)-6-(trifluoromethyl)imidazo[1,2-a]pyridin-2-yl]-7-(perfluoroethyl)imidazo[1,2-c]pyrimidine]	≥ 90			≥ 90		≥ 50
CCS(=O)(=O)c1c(-c2nc3cc(C(F)(F)F)cnc3n2C)nc2sc(C(F)(F)F)cn12 [2-1-001a, 5-(ethylsulfonyl)-6-[3-methyl-6-(trifluoromethyl)-3H-imidazo[4,5-b]pyridin-2-yl]-2-(trifluoromethyl)imidazo[2,1-b]thiazole]	≥ 90	≥ 90		≥ 90	≥ 90	≥ 50
CCS(=O)(=O)c1c(-c2nc3cc(C(F)(F)F)cnc3n2C)nc2ncc(C(F)(F)F)cn12 [1-1-054a, 2-[3-(ethylsulfonyl)-6-(trifluoromethyl)imidazo[1,2-a]pyrimidin-2-yl]-3-methyl-6-(trifluoromethyl)-3H-imidazo[4,5-b]pyridine]		≥ 90				
CCSc1c(-c2nc3ccc(C(F)(F)F)nc3n2C)nc2cc(C(F)(F)F)ccn12 [1-1-030b, 2-[3-(ethylthio)-7-(trifluoromethyl)imidazo[1,2-a]pyridin-2-yl]-3-methyl-5-(trifluoromethyl)-3H-imidazo[4,5-b]pyridine]	≥ 90	≥ 90				
CCS(=O)(=O)c1c(-c2nc3cc(SC(F)(F)F)cnc3n2C)nc2cc(C(F)(F)F)ccn12 [1-1-027a, 2-[3-(ethylsulfonyl)-7-(trifluoromethyl)imidazo[1,2-a]pyridin-2-yl]-3-methyl-6-((trifluoromethyl)thio)-3H-imidazo[4,5-b]pyridine]	≥ 90	≥ 90		≥ 90		≥ 50
CCS(=O)(=O)c1c(-c2nc3cc(S(=O)(=O)C(F)(F)F)ccc3o2)nc2ccc(C(F)(F)F)cn12 [1-2-001a, 2-[3-(ethylsulfonyl)-6-(trifluoromethyl)imidazo[1,2-a]pyridin-2-yl]-5-[(trifluoromethyl)sulfonyl]benz[d]oxazole]	≥ 90	≥ 90		≥ 90	≥ 90	≥ 50

— patent US10882869B2, “Condensed heterocyclic compounds and pesticides” (NISSAN CHEMICAL CORPORATION, priority 2015, dated 2021)
